The test system of series [1] is Tetrahymena pyriformis W. As to the kind of experiment: Antiprotozoal activity, broth dilution method. The format is cell-based. The note with it: 28° C. for 44 to 48 hours, pH 7.0. The procedure: The antiprotozoal activity values given in Table 2 were assayed using Tetrahymena pyriformis W as the test organism and an assay medium composed of 20 g tryptose peptone (Difco), 1 g yeast extract, 2 g glucose, 1000 ml distilled water and 10 ml 1 M phosphate buffer, pH 7.0. Thus, the strain was incubated at 28° C. for 44 to 48 hours and the minimal inhibitory concentration (MIC) of the compound (I) was determined by the broth dilution method.

Series [2] relates to human promyelocytic leukemia cell HL-60. As to the kind of experiment: Cell proliferation inhibition and differentiation induction, human promyelocytic leukemia cell HL-60 (Test Example 1): proliferation. The note with it: HL-60, 120 h, 5 days' culture, read-out: Cell proliferation inhibitory activity GD50. Format: cell-based. The procedure:
The cell proliferation inhibitory activity (GD50) and differentiation inducing activity of the compound of this invention against human promyelocytic leukemia cell HL-60 are shown in Table 1. The assays were performed by the method described for example in R. Gallo et al, Blood. vol. 54, No. 3, 713 (1979).

Series [3] concerns MM46 mammarian carcinoma. As to the kind of experiment: Antitumor activity against MM46 mammarian carcinoma. Format: in vivo, C3 H/He mice. The note with it: 250 μg/mouse/day, once daily, eight days in total; control average 14.2 days. As for the experimental part: MM46 mammarian carcinoma cells (1×10^5) was transplanted intraperitoneally to each of five C3 H/He mice group. From five days to two days before the transplantation and from two day to five days after the transplantation, eight days in total. 250 μg/mouse/day of the test compound was administered to the test group, once daily. Survival period of three of the test group was not less than 60 days, and that of the remaining two was 23 days in average. On the other hand, the average survival period of mice of the control group was 14.2 days.

Series [4] relates to sarcoma 180. As to the kind of experiment: Antitumor activity against sarcoma 180. The note with it: 500 μg/mouse. The format is in vivo, ICR mice.
Series [5] concerns Penicillium niger. As to the kind of experiment: Antifungal activity, serial dilution method. Format: cell-based.
The subject of series [6] is Botrytis cinerea. As to the kind of experiment: Antifungal activity, serial dilution method. Format: cell-based.
Series [7] relates to Aspergillus niger. As to the kind of experiment: Antifungal activity, serial dilution method. Format: cell-based.
A short description of series [8]: Hemolysis test (method of Gottfried et al). Format: cell-based. The note with it: erythrocytes; in the presence of 5% human albumin; read-out: 50% hemolytic concentration. The source says: The compound (I) is of relatively low toxicity and has generally low hemolytic activity. […] In these compounds (I), the influence of the length of chain R^1 varies with the other moiety of the molecule.

Series [9] deals with Sclerotinia sclerotiorum. Briefly: Antifungal activity, serial dilution method. The format is cell-based. The note with it: kidney bean stem rot, 1% glucose-bouillon agar.
The subject of series [10] is Helminthosporium sigmordeum. As to the kind of experiment: Antifungal activity, serial dilution method. Format: cell-based.
Series [11] relates to Saccharomyces cerevisiae. As to the kind of experiment: Antifungal activity, serial dilution method. Format: cell-based.
In series [12] the test system is Pyricularia oryzae. Briefly: microbe, parasite or virus in culture. The format is cell-based.
Series [13] deals with Cryptococcus neoformans. Briefly: Antimycotic activity, paper disk zone of inhibition. The note with it: 48 h, 3 mg/ml, 8 mm paper disk, 37° C. for 2 days, read-out: Diameter of inhibition zone. Format: cell-based. As for the experimental part: The antimycotic activity values presented in Table 2 were assayed using Cryptococcus neoformans as the test organism. Thus, a paper disk (8 mm dia.) was dipped into an aqueous solution of the test compound (3 mg/ml), dried in the air and set in position on an agar medium. The medium was incubated at 37° C. for 2 days, at the end of which time the diameter of the zone of inhibition was measured. When the diameter of the zone was not larger than 8 mm, 8-10 mm, 10-20 mm and larger than 20 mm, the activity was judged as -, ±, + and ++, respectively.

For series [14], the system named is Helminthosporium oryzae. As to the kind of experiment: Antifungal activity, serial dilution method. Format: cell-based. The note with it: Bipolaris oryzae.
Series [15] concerns Colletotrichum lagenarium. Briefly: Antifungal activity, serial dilution method. The note with it: Colletotrichum orbiculare. The format is cell-based.
The mark [16] stands for this setting: gray mold, 1% glucose-bouillon agar, read-out: MIC.
[17] abbreviates: black mold, 1% glucose-bouillon agar, read-out: MIC.
The mark [18] stands for this setting: blue mold, 1% glucose-bouillon agar, read-out: MIC.
The mark [19] stands for this setting: rice stem rot, 1% glucose-bouillon agar, read-out: MIC.
The mark [20] stands for this setting: brewer's yeast, 1% glucose-bouillon agar, read-out: MIC.
Where [21] appears, read: cucumber anthracnose, 1% glucose-bouillon agar, read-out: MIC.

The text below walks through data of patent US4542219A, “Certain heterocyclic ammonio phosphate derivatives” (Takeda Chemical Industries, Ltd., priority 1981, dated 1985).

Like-named read-outs stand apart in the source and are kept apart here.

Regarding `CCCCCCCCCCCCCCCCCCOCCOP(=O)([O-])OCC[n+]1ccccc1` [Production Example 10, 2-Octadecyloxyethyl 2-pyridinioethyl phosphate], the MIC in [1] stood at 4 µg/mL. For the same compound, the IC50 in series [2] was found to be 1.5 µg/mL. Besides, in series [3], the “Average survival period of the remaining two of the test group (five mice)” value was 23 days and the “Survival period of three of the test group (five mice)” value is “not less than 60 days”. For the same compound, the “survival rate of the test group against the control group T/C” value in [4] is recorded as 310%. This compound also registered an Average survival period in series [4] (four days before ip transplantation of 1×10^5 cells, control 9.6 days) of 29.8 days.

For the compound `CCCCCCCCCCCCCOCCOP(=O)([O-])OCC[N+](C)(C)C` [Production Example 2, 2-Tridecyloxyethyl 2-trimethylammonioethyl phosphate], the MIC came to 25 µg/mL in [5]; 12.5 µg/mL in series [6] (setting [16]); 12.5 µg/mL in series [7] (setting [17]); 0.4 µg/mL in series [1]; 12.5 µg/mL in series [9]; 6.25 µg/mL in series [10]. In addition, the MIC in series [11] is 6.25 µg/mL; in series [12], 6.25 µg/mL; in series [14] it was 6.25 µg/mL; in series [15], 3.12 µg/mL. Further, the HC50 in series [8] is about 80 µg/mL. In addition, the zone of inhibition at 3000 µg/mL in series [13] is over 20 mm.

As to `CCCCCCCCCCCCCCOCCOP(=O)([O-])OCC[N+](C)(C)CCCC(=O)O` [Production Example 12, 2-Tetradecyloxyethyl 2-[N-(3-carboxypropyl)-N,N-dimethyl]ammonioethyl phosphate], in [1], the MIC came out at 0.4 µg/mL. Further, the IC50 in series [2] stood at 1.5 µg/mL.

For the compound `CCCCCCCCCCCCCCCCCCOCCOP(=O)(O)OCCN` [Production Example 6, 2-Octadecyloxyethyl 2-aminoethyl phosphate], in series [1], the MIC is over 4 µg/mL. In addition, the IC50 in series [2] turned out to be 3 µg/mL. Besides, the zone of inhibition at 3000 µg/mL in [13] lay within 8 to 10 mm.

For `CCCCCCCCCCCCOCCOP(=O)([O-])OCC[N+](C)(C)C` [Production Example 4, 2-Dodecyloxyethyl 2-trimethylammonioethyl phosphate], the MIC in series [5] (setting [18]) was 25 µg/mL; in [6] (setting [16]) it was 25 µg/mL; in series [7] (setting [17]) it was 25 µg/mL; in [1], 0.4 µg/mL; in [9] it was 100 µg/mL; in [10] (setting [19]) it was 25 µg/mL. Besides, the MIC worked out at 25 µg/mL in [11] (setting [20]), 12.5 µg/mL in series [12], 12.5 µg/mL in series [14] and 6.25 µg/mL in [15] (setting [21]). Moreover, in series [13], the zone of inhibition at 3000 µg/mL fell in the range of 10 to 20 mm.

For `CCCCCCCCCCCCCCOCCOP(=O)(O)OCCN` [Production Example 5, 2-Tetradecyloxyethyl 2-aminoethyl phosphate], the MIC in series [5] (setting [18]) was 50 µg/mL; in series [6] it was 50 µg/mL; in series [7] (setting [17]), 25 µg/mL; in [1], 4 µg/mL; in series [9], 100 µg/mL; in [10] (setting [19]) it was over 100 µg/mL. Further, the MIC was 25 µg/mL in series [11] (setting [20]), 25 µg/mL in series [12], over 100 µg/mL in [14] and 25 µg/mL in series [15] (setting [21]). For the same compound, in series [13], the zone of inhibition at 3000 µg/mL fell in the range of 8 to 10 mm.

`CCCCCCCCCCCCCCCOCCOP(=O)([O-])OCC[n+]1ccccc1` [Production Example 8, 2-Pentadecyloxyethyl 2-pyridinioethyl phosphate] came in with an MIC in [1] of 4 µg/mL. In addition, the IC50 in [2] is 3.4 µg/mL. Besides, the zone of inhibition at 3000 µg/mL in [13] was in the range of 10 to 20 mm.

Turning to `CCCCCCCCCCCCCCOCCOP(=O)([O-])OCC[N+](C)(C)C` [Production Example 1, 2-Tetradecyloxyethyl 2-trimethylammonioethyl phosphate], the MIC came out at 12.5 µg/mL in [5]; 12.5 µg/mL in series [6]; 12.5 µg/mL in series [7]; 0.4 µg/mL in [1]; 50 µg/mL in series [9]; 3.12 µg/mL in series [10]. The MIC in [11] was under 3.12 µg/mL; in series [12] it was 3.12 µg/mL; in series [14], 12.5 µg/mL; in [15], 3.12 µg/mL. For the same compound, in series [2], the IC50 was determined as 3.8 µg/mL. For the same compound, the zone of inhibition at 3000 µg/mL in series [13] is over 20 mm.

Regarding `CCCCCCCC/C=C\CCCCCCCCOCCOP(=O)([O-])OCC[N+](C)(C)C` [Production Example 3, 2-Oleyloxyethyl 2-trimethylammonioethyl phosphate], the MIC in series [5] (setting [18]) was 50 µg/mL; in [6] (setting [16]), 3.12 µg/mL; in series [7] (setting [17]) it was 25 µg/mL; in series [1], 0.4 µg/mL; in series [9] it was 100 µg/mL; in series [10], 6.25 µg/mL. Besides, the MIC in series [11] stood at 12.5 µg/mL; in [12], 1.56 µg/mL; in series [14], 6.25 µg/mL; in [15], 6.25 µg/mL. Further, the zone of inhibition at 3000 µg/mL in [13] was over 20 mm.

In the case of `CCCCCCCCCCCCCCOCCOP(=O)([O-])OCC[N+](C)(C)CCCC(=O)OC` [Production Example 11, 2-Tetradecyloxyethyl 2-[N,N-dimethyl-N-(3-methoxycarbonylpropyl)]ammonioethyl phosphate], the MIC in series [1] amounted to 4 µg/mL. The IC50 in series [2] was determined as 2.5 µg/mL.

`CCCCCCCCCCCCCCOCCOP(=O)([O-])OCC[n+]1ccccc1` [Production Example 9, 2-Tetradecyloxyethyl 2-pyridinioethyl phosphate] had an MIC in series [1] of 4 µg/mL. Besides, in [2], the IC50 worked out at 4.1 µg/mL. Further, the zone of inhibition at 3000 µg/mL in series [13] is over 20 mm.

In turn, `CCCCCCCCCCCCCCCOCCOP(=O)([O-])OCC[N+](C)(C)C` [Production Example 7, 2-Pentadecyloxyethyl 2-trimethylammonioethyl phosphate] yielded an MIC in series [1] of at most 1 µg/mL. Moreover, the IC50 in series [2] amounted to 1.2 µg/mL. Further, the zone of inhibition at 3000 µg/mL in [13] lay in the range of 10 to 20 mm.
